Test results taken from PubChem BioAssay (NCI).
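Five compound concentrations were applied to cells in 96-well plates for 48 hours; endpoints were derived by simple linear interpolation of the resulting dose-response curve. The concentration for full growth arrest is given as TGI.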

Columns and labels:
Experiment in all cases: NCI tumour cell line growth inhibition, 48 h
786-0 renal = system: 786-0 renal
A549 NSCLC = system: A549 NSCLC
DU-145 prostate = system: DU-145 prostate
HCT-15 colon = system: HCT-15 colon
HT29 colon = system: HT29 colon
SF-539 CNS = system: SF-539 CNS
SK-MEL-2 melanoma = system: SK-MEL-2 melanoma
T-47D breast = system: T-47D breast
UACC-257 melanoma = system: UACC-257 melanoma
SNB-75 CNS = system: SNB-75 CNS

Row | Compound | TGI (786-0 renal) [µM] | TGI (A549 NSCLC) [µM] | TGI (DU-145 prostate) [µM] | TGI (HCT-15 colon) [µM] | TGI (HT29 colon) [µM] | TGI (SF-539 CNS) [µM] | TGI (SK-MEL-2 melanoma) [µM] | TGI (T-47D breast) [µM] | TGI (UACC-257 melanoma) [µM] | TGI (SNB-75 CNS) [µM]
1 | CCOC(=O)[C@@]1(C)CC(O)C(=O)N1C (stereo partly drawn) | > 100 | > 100 | > 100 | > 100 | > 100 | > 100 | > 100 | > 100 | > 100 | 
2 | Cc1cc(Nc2ccc(NS(C)(=O)=O)cc2)c2c(ccc3nccc32)[nH]1 | 45.2 | > 100 | 40.1 | > 100 | 89.3 |  | 30.5 | 19.5 | 34.7 | 
3 | CCCCSC1=N/C(=C\c2ccc(N(C)C)cc2)C(=O)N1 | 42.9 | 75.2 | > 100 | > 100 | 36.8 | 63.9 |  | 81.8 | 56.7 | > 100
4 | CN(O)C(=O)CCCC(=O)NCC(C)(C)CNC(=O)CCCC(=O)N(C)O |  | > 100 | > 100 | > 100 | > 100 | > 100 | > 100 | > 100 | > 100 | > 100
5 | Cc1cc2c(c(S(=O)(=O)c3ccccc3[N+](=O)[O-])c1)NCCC2 | > 100 | > 100 | > 100 | > 100 | > 100 | > 100 | > 100 | 40.2 |  | > 100
6 | N#Cc1cc(Sc2ccc(N)c(C#N)c2)ccc1N | 43.3 | > 100 | 89.6 | 38.9 | 30.9 | 27.9 | > 100 | > 100 | > 100 | 
7 | C/C=C(\C)C(=O)O[C@@H]1CC(C)(C)CC2C3=CCC4[C@]56CC[C@](O)(OC5)C(C)(C)C6CC[C@@]4(C)C3(C)CC[C@]21C(=O)O (stereo partly drawn) | > 100 | > 100 | > 100 | > 100 | > 100 | > 100 | > 100 | > 100 | > 100 | 
8 | O=c1[nH]nc(Nc2ccccc2)c2nnn(C3CCCCC3)c12 | > 100 | > 100 | > 100 | > 100 | > 100 |  | > 100 |  | > 100 | 
9 | CNC(=O)SCC(NC(=O)CCC(N)C(=O)O)C(=O)NCC(=O)O (stereo not drawn) |  | > 100 |  | > 100 | > 100 | > 100 | > 100 |  | > 100 | > 100
10 | Nc1ccc2ccc(N3CCNCC3)nc2n1 | > 100 | > 100 | > 100 | > 100 | > 100 | > 100 | > 100 |  | > 100 | > 100
11 | C=CCOC(OCC=C)/C(Br)=C/C | 34 | > 100 | > 100 | 89.3 | 62.3 |  | > 100 | 72.6 | > 100 | > 100
12 | CCCCCCCCP(=O)(O)OP(=O)(O)OCC1OC(n2ccc(N)nc2=O)C(O)C1O (stereo not drawn) | > 100 | > 100 |  | > 100 | > 100 | > 100 | > 100 | > 100 | > 100 | > 100
